Laboratory results: patent US9481667B2, “Salts and solid forms of isoquinolinones and composition comprising and methods of using the same” (Infinity Pharmaceuticals, Inc., priority 2013, dated 2016)
Converted amounts (≈) assume the structure as drawn. Where a name gives a salt, the structure may show the parent alone.

Key:
Type in all cases: physicochemical
[1] = Thermodynamic aqueous solubility; conditions: aqueous, thermodynamic from solid
[2] = Stability on standing at ambient/room conditions
Text: The bis-sulfuric acid salt is difficult to crystallise in an anhydrous environment. The experiment in methanol produced a clear solution, which then became an oil after solvent evaporation.

[3] = Storage at 25° C./93% RH (solid-state stability); conditions: for Stability on storage at 25° C./93% RH: 1 week, solid form by XRPD
[4] = Storage at 40° C./75% RH (solid-state stability); conditions: for Stability on storage at 40° C./75% RH: 1 week, solid form by XRPD
Description: The crystalline solids were filtered, dried at ambient conditions, and stored at 40° C./75% RH for 1 week and analyzed by ^1H NMR/IC.
Samples from the screen using amorphous free base Compound 1 were analysed by ^1H-NMR and DSC, and re-analysis by XRPD was also carried out after drying at 50° C./vacuum and storage at 40° C./75% RH (the same sample was dried and stored at elevated humidity).

[5] = Free base solubility assessment in solvents
Description: Approximately 11 mg (0.022 mmol) portions of the free base Form 1 of Compound 1 (i.e., the compound of formula (I)) were weighed into 2 ml screw-topped HPLC vials. One of 15 solvents was added to each vial in a number of aliquots (up to 100 volumes), with shaking and if necessary with heating to 40° C., in an attempt to achieve dissolution.

[6] = Gravimetric vapour sorption (GVS)
Description: Sorption isotherms were obtained using a Hiden IGASorp moisture sorption analyser, controlled by CFRSorp software. The sample temperature was maintained at 25° C. by a Huber re-circulating water bath. The humidity was controlled by mixing streams of dry and wet nitrogen, with a total flow rate of 250 ml/min. The relative humidity (RH) was measured by a calibrated Vaisala RH probe (dynamic range of 0-95% RH), located near the sample. The weight change, (mass relaxation) of the sample as a function of % RH was constantly monitored by the microbalance (accuracy ±0.001 mg). Typically 10-20 mg of sample was placed in a tared mesh stainless steel basket under ambient conditions. The sample was loaded and unloaded at 40% RH and 25° C. (typical room conditions). A moisture sorption isotherm was performed as outlined below (2 scans giving 1 complete cycle). The standard isotherm was performed at 25° C. at 10% RH intervals over a 0-90% RH range.
The software uses a least squares minimisation procedure together with a model of the mass relaxation, to predict an asymptotic value. The measured mass relaxation value must be within 5% of that predicted by the software, before the next % RH value is selected. The minimum equilibration time was set to 1 hour and the maximum to 4 hours. The sample was recovered after completion of the isotherm and re-analysed by XRPD.

[7] = listed as Compound 1 Free Base Form 1
[8] = listed as amorphous free base Compound 1

For COc1cc(-c2cccc3cc([C@H](C)Nc4nc(N)ncc4C#N)n(-c4ccccc4)c(=O)c23)ccn1 [(S)-2-amino-4-((1-(8-(2-methoxypyridin-4-yl)-1-oxo-2-phenyl-1,2-dihydroisoquinolin-3-yl)ethyl)amino)pyrimidine-5-carbonitrile], the solubility thermodynamic ([1]; pH 1.9, water, 0.5 g scale-up salts, pH of solution reported separately) was 1900 µg/mL, the Crystallinity after standing ([2]; RT, 24 hours) was “decreases” and the “Stability at ambient conditions” value ([2]; converts to Form 1 by hydration) was “unstable”.

In the case of CC(=O)O.COc1cc(-c2cccc3cc([C@H](C)Nc4nc(N)ncc4C#N)n(-c4ccccc4)c(=O)c23)ccn1.COc1cc(-c2cccc3cc([C@H](C)Nc4nc(N)ncc4C#N)n(-c4ccccc4)c(=O)c23)ccn1 [Batch 2 of Form 6], the “Stability at 25° C./93% RH” value ([3]; after 1 week) is reported as “Very slight changes” and the “Stability at 40° C./75% RH” value ([4]; after 1 week) is reported as “Very slight changes”.

In the case of COc1cc(-c2cccc3cc([C@H](C)Nc4nc(N)ncc4C#N)n(-c4ccccc4)c(=O)c23)ccn1 [Compound 1, (S)-2-amino-4-((1-(8-(2-methoxypyridin-4-yl)-1-oxo-2-phenyl-1,2-dihydroisoquinolin-3-yl)ethyl)amino)pyrimidine-5-carbonitrile], the “solvent volumes to dissolve” value ([5]; 2-MeTHF, free base Form 1, shaking, if necessary heating to 40° C.) is reported as 50 vol, the “solvent volumes to dissolve” value ([5]; DMSO, free base Form 1, shaking, if necessary heating to 40° C.) is reported as 5 vol and the “solvent volumes to dissolve” value ([5]; EtOAC, free base Form 1, did not dissolve in up to 100 vol.) is reported as > 100 vol. For the same compound, the “solvent volumes to dissolve” value ([5]; EtOH/H2O, free base Form 1, did not dissolve in up to 100 vol.) was > 100 vol, the “solvent volumes to dissolve” value ([5]; EtOH, free base Form 1, did not dissolve in up to 100 vol.) was > 100 vol and the “solvent volumes to dissolve” value ([5]; H2O, free base Form 1, did not dissolve in up to 100 vol.) was > 100 vol. The “solvent volumes to dissolve” value ([5]; MIBK, free base Form 1, shaking, if necessary heating to 40° C.) was 40 vol, the “solvent volumes to dissolve” value ([5]; MeOH/anisole (50/50 v/v), free base Form 1, shaking, if necessary heating to 40° C.) was 10 vol and the “solvent volumes to dissolve” value ([5]; MeOH, free base Form 1, shaking, if necessary heating to 40° C.) was 75 vol. For the same compound, the “solvent volumes to dissolve” value ([5]; TBME, free base Form 1, did not dissolve in up to 100 vol.) was > 100 vol, the “solvent volumes to dissolve” value ([5]; THF, free base Form 1, shaking, if necessary heating to 40° C.) was 40 vol and the “solvent volumes to dissolve” value ([5]; acetone, free base Form 1, did not dissolve in up to 100 vol.) was > 100 vol. For the same compound, the “solvent volumes to dissolve” value ([5]; acetonitrile, free base Form 1, did not dissolve in up to 100 vol.) was > 100 vol, the “solvent volumes to dissolve” value ([5]; anisole, free base Form 1, did not dissolve in up to 100 vol.) was > 100 vol and the “solvent volumes to dissolve” value ([5]; chloroform, free base Form 1, shaking, if necessary heating to 40° C.) was 40 vol.

With COc1cc(-c2cccc3cc([C@H](C)Nc4nc(N)ncc4C#N)n(-c4ccccc4)c(=O)c23)ccn1 [Form 1 of the 1,2-ethanedisulfonic acid salt of Compound 1] [(S)-2-amino-4-((1-(8-(2-methoxypyridin-4-yl)-1-oxo-2-phenyl-1,2-dihydroisoquinolin-3-yl)ethyl)amino)pyrimidine-5-carbonitrile] the “Storage 25° C./93% RH for 1 week: HPLC Purity” value ([3]; 0.5 g scale-up salts) was “HPLC Purity: Unchanged”, the “Storage 25° C./93% RH for 1 week: XRPD (D8)” value ([3]; 0.5 g scale-up salts) was “XRPD (D8): Unchanged” and the “Storage 40° C./75% RH for 1 week: HPLC Purity” value ([4]; 0.5 g scale-up salts) was “HPLC Purity: Unchanged”. For the same compound, the “Storage 40° C./75% RH for 1 week: XRPD (D8)” value ([4]; 0.5 g scale-up salts) was “XRPD (D8): Unchanged”, the “Stability on storage at 40° C./75% RH” value [4] was “stable” and the “Stability on storage at 40° C./75% RH” value ([4]; listed as mono-1,2-ethanedisulfonic acid salt) was “stable”. The “XRPD post GVS (C2)” value ([6]; 0.5 g scale-up salts) was “Unchanged” and the “GVS Single cycle” value ([6]; hygroscopicity, 25° C., 0-90% RH) was “Moderately hygroscopic”.

In the case of COc1cc(-c2cccc3cc([C@H](C)Nc4nc(N)ncc4C#N)n(-c4ccccc4)c(=O)c23)ccn1 [Form 1 of the free base of Compound 1, (S)-2-amino-4-((1-(8-(2-methoxypyridin-4-yl)-1-oxo-2-phenyl-1,2-dihydroisoquinolin-3-yl)ethyl)amino)pyrimidine-5-carbonitrile], the solubility thermodynamic ([1]; water, at pH 6.85) is reported as 4 µg/mL (≈ 8.17 µM), the “Stability on storage at 25° C./93% RH” value [3] is reported as “converts to Form 3” and the “Stability on storage at 25° C./93% RH” value [3, 7] is reported as “Conversion to Form 3 (FIG. 31)”. The “Stability on storage at 25° C./93% RH” value ([3]; listed as Free base Form 1) was “conversion to Form 3”, the “Stability on storage at 40° C./75% RH” value [4] was “stable” and the “Stability on storage at 40° C./75% RH” value [4, 7] was “No changes in form after 1 week”. The “Stability on storage at 40° C./75% RH” value ([4]; listed as Free base Form 1) was “did not show any changes”, the “RH range in which hydration to Form 3 occurs” value [6] was 80-90 % RH and the “GVS: form change with humidity” value ([6]; above 80% RH, listed as Free base Form 1) was “hydrates to a higher hydrate above 80% RH, but this re-converts to Form 1 on desorption”. For the same compound, the “GVS: moisture on loading” value ([6]; loaded at 40% RH, 25° C., listed as Compound 1 Free Base Form 1) was 0.7 % w/w.

In the case of COc1cc(-c2cccc3cc([C@H](C)Nc4nc(N)ncc4C#N)n(-c4ccccc4)c(=O)c23)ccn1 [amorphous free base of Compound 1, (S)-2-amino-4-((1-(8-(2-methoxypyridin-4-yl)-1-oxo-2-phenyl-1,2-dihydroisoquinolin-3-yl)ethyl)amino)pyrimidine-5-carbonitrile], the “Stability on storage at 25° C./93% RH” value [3, 8] is reported as “No changes after 1 week”, the “Stability on storage at 40° C./75% RH” value [4, 8] is reported as “No changes after 1 week” and the “Storage at elevated humidity” value ([4]; elevated humidity conditions, solid form) is reported as “No crystallisation”.
